Source: patent publication EP1285971B1, “Methods for the phenotypic and genotypic assessment of the drug sensitivity of HIV integrase variants” (Tibotec Pharmaceuticals Ltd., priority 2001, dated 2003)
pEC50: −log10 of the molar value.

Tests used:
NL 4-3 = assay: microbe, parasite or virus in culture; type: cell-based, HIV-1; settings: for fold change: fold change in EC50
Method: (§1) The integrase encoding sequence was amplified from either wildtype HIV-1 (IIIB) or NL4.3 virus, or HXB2D site-directed mutant viruses containing mutations in integrase (such as T66I, S153Y, M154I, or combinations thereof) (Hazuda et al., Science 2000, 287, 646-650), or patient samples. Starting from RNA, extracted from virus supernatant or plasma using the QIAamp® viral RNA extraction kit (Qiagen), cDNA was synthesized by reverse transcription (Expand TM reverse transcriptase, 30 min at 42°C) with the primer 3'EGINT10 (SEQ ID NO 11), followed by a nested PCR. The outer PCR was performed with the primers 5'EGINT1 (SEQ ID NO 1) and 3'EGINT10 (SEQ ID NO 11) (ΔR-IN-vif construct) or 5'EGINT3 (SEQ ID NO 4) and 3'EGINT10 (SEQ ID NO 11) (ΔIN construct) (Expand™ High Fidelity PCR system), and 5 µl of the outer product was used for an inner PCR with primers 5'EGINT2 (SEQ ID NO 3) and 3'EGINT11 (SEQ ID NO 12) (ΔR-IN-vif construct) or 5'EGINT4 (SEQ ID NO 5) and 3'EGINT6 (SEQ ID NO 7) (ΔIN construct). In a second protocol the outer primers were identical as described above, the inner primers are 5'EGINT5 (SEQ ID NO 6) and 3'EGINT6 (SEQ ID NO 7). The amplicons can be used for genotyping and phenotyping. Cycling conditions for both PCRs are denaturation for 3 min at 95°C, followed by 30 cycles of 1 min 90°C, 30 sec 55°C, and 2 min 72°C. A final extension was performed at 72°C for 10 min. For recombination, PCR products are purified using the QiaQuick® 96 PCR BioRobot kit (Qiagen), according to the manufacturer's protocol. If the protocol starts from DNA containing the HIV material such as proviral DNA, the reverse transcriptase step is not needed. The nested approach is also not needed when starting from proviral DNA. The obtained amplicons were sequenced using the primers: In_seq1F (SEQ ID NO 17), In_seq2F (SEQ ID NO 18), In_seq3F (SEQ ID NO 19), IN_seq1R (SEQ ID NO 20), IN_seq2R (SEQ ID NO 21), and IN_seq3R (SEQ ID NO 22).
(§2) A ΔR-IN-vif or ΔIN deletion construct was generated by site-directed mutagenesis on the template pSV40HXB2D with the primers MUT-IN1 (SEQ ID NO 13) and MUT-IN2 (ΔR-IN-vif construct) (SEQ ID NO 14) or MUT-IN3 (SEQ ID NO 15) and MUT-IN4 (SEQ ID NO 16) (ΔIN construct) (protocol Site-directed mutagenesis kit, Stratagene). After DpnI digestion for removal of the methylated template DNA, the construct was digested with SmaI and ligated to circulize the plasmid. The plasmid was transformed into competent cells such as Top10 cells, and colonies were screened for the presence of the deletion construct. The IN-deletion construct was checked by sequence analysis with primers 5'EGINT1 (SEQ ID NO 1) or […] and 3'EGINT10 (SEQ ID NO 11) or 3'EGINT11 (SEQ ID NO 12). For use in recombination experiments, large-scale plasmid DNA preparations were linearized by SmaI digestion and recombined with PCR amplified integrase genes from wild type, mutant, or patient viruses. The plasmid containing the integrase deletion (ΔIN) has been deposited pSV40HXB2D-ΔIN. The sequence of said plasmid is 14377 nucleotides long. The ΔR-IN-vif deletion construct is 13975 nucleotides long. The pSV40HXB2D-ΔIN was deposited at the Belgian Coordinated Collections of Micro-Organisms located at the Universiteit Gent - Laboratorium voor Moleculaire Biologie on August 5, 2002 and the accession number is LMBP 4574.
(§3) Recombinant virus was produced by co-transfection by electroporation of the SmaI-linearized IN-deletion construct and the integrase amplicon into MT4 cells or MT4 cells equipped with an LTR driven reporter gene construct. Production of recombinant virus was evaluated by scoring the cytopathogenic effect (CPE) that is induced by HIV-infection of MT4 cells or by the LTR-driven reporter signal induced by HIV infection in MT4 reporter cells.

WT III B = assay: microbe, parasite or virus in culture; type: cell-based, HIV-1; settings: for fold change: fold change in EC50
Method: as §1, §2, §3

M154I mutation = assay: Antiviral assay with recombinant virus generated from site-directed mutant virus; type: cell-based, HIV
Method: as §1
(§4) Recombinant virus was produced by co-transfection by electroporation of the SmaI-linearized IN-deletion construct and the integrase amplicon into MT4 cells or MT4 cells equipped with an LTR driven reporter gene construct. Production of recombinant virus was evaluated by scoring the cytopathogenic effect (CPE) that is induced by HIV-infection of MT4 cells or by the LTR-driven reporter signal induced by HIV infection in MT4 reporter cells. Green fluorescent protein was used as the reporter signal. Viruses are harvested and titrated at maximum CPE. For recombination the deletion construct pSV40HXB2D-ΔIN was used. Recombination experiments were performed with amplicon from wildtype HIV IIIB and NL4.3, and patient sample 146514 generated by both primer sets. For each recombination 2 µg amplicon was co-transfected with 10 µg SmaI-digested pSV40HXB2D-ΔIN by electroporation into MT4-LTR-EGFP cells. Virus stocks were titrated and tested in an antiviral experiment on a reference panel including nucleoside reverse transcriptase inhibitors (NRTI), non- nucleoside reverse transcriptase inhibitors (NNRTI), protein inhibitor (PR), entry and integrase (IN) inhibitors (Table 2). Recombination was checked by nucleic acid sequence analysis using protocols known to the person skilled in the art. Sequencing primers which can be used are In_seq1F (SEQ ID NO 17), In_seq2F (SEQ ID NO 18), In_seq3F (SEQ ID NO 19), IN_seq1R (SEQ ID NO 20), IN_seq2R (SEQ ID NO 21), and IN_seq3R (SEQ ID NO 22).

S153Y = assay: as above; type: cell-based, HIV
Method: as §1, §4

T661/M154I mutations = assay: as above; type: cell-based, HIV
Method: as §1, §4

T66I mutation = assay: as above; type: cell-based, HIV
Method: as §1, §4

T66I/S153Y mutations = assay: as above; type: cell-based, HIV
Method: as §1, §4

[1] = Human immunodeficiency virus 1, AVE 1, NL 4-3, primer set 3
[2] = Human immunodeficiency virus 1, NL43, AVE 4, NL4-3, primer set 4
[3] = Human immunodeficiency virus 1, AVE 3, WT III B, primer set 3
[4] = Human immunodeficiency virus 1, AVE 5, WT III B, primer set 4

| Compound | fold change (NL 4-3; AVE 1, NL 4-3, primer set 3) | fold change (NL 4-3; AVE 4, NL4-3, primer set 4) | pEC50 (NL 4-3; [1]) | pEC50 (NL 4-3; [2]) | fold change (WT III B; AVE 3, WT III B, primer set 3) | fold change (WT III B; AVE 5, WT III B, primer set 4) | pEC50 (WT III B; [3]) | pEC50 (WT III B; [4]) | fold increase in EC50 (M154I mutation) | fold increase in EC50 (S153Y) | fold increase in EC50 (T661/M154I mutations) | fold increase in EC50 (T66I mutation) | fold increase in EC50 (T66I/S153Y mutations) |
| --- | --- | --- | --- | --- | --- | --- | --- | --- | --- | --- | --- | --- | --- |
| Nc1ccn([C@@H]2CS[C@H](CO)O2)c(=O)n1 [Compound 3TC, Lamivudine] | 0,6 | 2,0 | 6.09 | 5.56 | 0,3 | 1,2 | 6.42 | 5.77 |  |  |  |  |  |
| CC(C)Oc1ccc(Cc2ccccc2)cc1C(=O)CC(=O)C(=O)O [Compound 4, 2-(1-methylethyloxy)-α,γ dioxo-5-(phenylmethyl)-benzenebutanoic acid] | 0,6 | 0,9 | 6.76 | 6.62 | 0,4 | 0,7 | 6.97 | 6.73 | 3 fold | 5 fold | 10 fold | 2 fold | 10 fold |
| O=c1[nH]cnc2c1ncn2[C@H]1CC[C@@H](CO)O1 [DDI, Didanosine] | 0,7 | 1,6 | 5.47 | 5.10 | 0,5 | 1,6 | 5.60 | 5.12 |  |  |  |  |  |
| CC(C)(C)NC(=O)[C@@H]1CN(Cc2cccnc2)CCN1C[C@@H](O)C[C@@H](Cc1ccccc1)C(=O)N[C@H]1c2ccccc2C[C@H]1O [IDV, Indinavir] | 0,7 | 1,2 | 7.50 | 7.29 | 0,4 | 0,9 | 7.74 | 7.38 |  |  |  |  |  |
| Cc1ccnc2c1NC(=O)c1cccnc1N2C1CC1 [NVP, Nevirapine] | 1,1 | 1,7 | 7.01 | 6.82 | 0,8 | 1,6 | 7.18 | 6.87 |  |  |  |  |  |
| CC(C)c1nc(CN(C)C(=O)N[C@H](C(=O)N[C@@H](Cc2ccccc2)C[C@H](O)[C@H](Cc2ccccc2)NC(=O)OCc2cncs2)C(C)C)cs1 [RTV, ritonavir] | 0,6 | 1,2 | 7.06 | 6.77 | 0,3 | 1,0 | 7.35 | 6.81 |  |  |  |  |  |
| CC(C)(C)NC(=O)[C@@H]1C[C@@H]2CCCC[C@@H]2CN1C[C@@H](O)[C@H](Cc1ccccc1)NC(=O)[C@H](CC(N)=O)NC(=O)c1ccc2ccccc2n1 [SQV, Saquinavir] | 1,2 | 1,9 | 7.63 | 7.41 | 0,7 | 1,8 | 7.89 | 7.45 |  |  |  |  |  |
